Measurements from patent publication US11793867B2, “Neoantigens and uses thereof” (BIONTECH US INC., priority 2017, dated 2023).

Legend:
[1] = tested on: CD8+ T cell responses; assay: In vivo immunogenicity assay, longmers and shortmers sequentially (FIG. 3 regimen); parameters: species or system C57BL/6 mice; settings: CD8 T cells induced by Alg8 vaccination
Experimental: FIG. 3 illustrates exemplary administration regimen for peptides comprising neoepitopes. The top panel depicts administering a prime dose and boost of longmer. The middle panel depicts administering a prime dose and boost of shortmer. The lower panel depicts administering a prime dose of longmer and boost of shortmer. The boost dose is administered on day 7, 14, and day 21 after the prime dose.
Peptide-specific T cells are functionally enumerated using the ELISPOT assay (BD Biosciences), which measures the release of IFNγ from T cells on a single cell basis. Cells incubated with antigen overnight (16-18 hours) at 37° C. The next day, the cell suspension was discarded, and wells were washed once with PBS, and twice with deionized water. […] Substrate (3-amino-9-ethyl-carbazole, 0.1 M Acetate buffer, H2O2) was added to all wells, and spot development monitored (approximately 10 minutes). […] The plates were analyzed on an ELISPOT reader (Cellular Technology Ltd.) with accompanying software. […]
MHC tetramers were purchased or manufactured on-site, and were used to measure peptide-specific T cell expansion in the immunogenicity assays. […] The phenotype of cells was assessed using markers such as CD44, CD62L, KLRG1, CD127, PD-1, LAG-3 and TIM-3. […] Cells were acquired on a FACS Calibur (Becton Dickinson) instrument, and were analyzed by use of Cellquest software (Becton Dickinson). […]

[2] = in combination with a NYESO-1 peptide vaccine (in addition to Montanide); cited from earlier work
[3] = in humans; cited from earlier work

Substance: AVGITYTWTRLYASVLTGSLVSKTKK [Alg8, longmer murine neoantigen peptide, H-2Kb, T3 model]
- TCR avidity (EC50) [1]: similar

Substance: ITYTWTRL [Alg8-shortmer]
- TCR avidity (EC50) [1]: similar

Substance: poly-ICLC
- patients showing induction of CD4+ and CD8+ T cell, as well as antibody responses to the peptide [2]: > 90%
- CD4+ and CD8+ responses [3]: durable CD4+ and CD8+ responses
